In the supplement of paper PMC10307832:

Key:
Test in all cases: relative viability (nuclei count vs DMSO), 5 days (fraction); higher = more cells survive
LU99A = test system: LU99A
Procedure, shortened: (§1)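 Nuclei were stained with Hoechst during a one-step fixation (final 0.05% Triton X-100, 1% formaldehyde, 1 ug/ml Hoechst) carried out 5 days after dosing, then counted on 4× images. The cells, lung cancer lines in 1536-well plates, had been dosed by pin tool the day after seeding with one drug alone or a fixed anchor-drug dose plus five library-drug doses (not always all listed) in √10 steps. Relative viability is the nuclei count in treated wells divided by that in vehicle wells, and each value is the median of duplicate plates.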

NCI-H1395 = test system: NCI-H1395
Procedure, shortened: as §1

HCC-15 = test system: HCC-15
Procedure, shortened: as §1

NCI-H647 = test system: NCI-H647
Procedure, shortened: as §1

NCI-H1944 = test system: NCI-H1944
Procedure, shortened: as §1

CAL-12T = test system: CAL-12T
Procedure, shortened: as §1

NCI-H1666 = test system: NCI-H1666
Procedure, shortened: as §1

LC-2-ad = test system: LC-2-ad
Procedure, shortened: as §1

PC-3 [JPC-3] = test system: PC-3 [JPC-3]
Procedure, shortened: as §1

NCI-H1734 = test system: NCI-H1734
Procedure, shortened: as §1

NCI-H1975 = test system: NCI-H1975
Procedure, shortened: as §1

H3255 = test system: H3255
Procedure, shortened: as §1

PC-14 = test system: PC-14
Procedure, shortened: as §1

NCI-H1993 = test system: NCI-H1993
Procedure, shortened: as §1

HCC-366 = test system: HCC-366
Procedure, shortened: as §1

HARA = test system: HARA
Procedure, shortened: as §1

NCI-H838 = test system: NCI-H838
Procedure, shortened: as §1

NCI-H3122 = test system: NCI-H3122
Procedure, shortened: as §1

O=C(O)CCCCC(CCSCc1ccccc1)SCc1ccccc1 (centres undefined) [CPI-613] + NC(=O)Nc1cc(-c2cccc(F)c2)sc1C(=O)N[C@H]1CCCNC1 [AZD7762] (partner 0.2 µM)
relative viability (LU99A; first compound 5 µM): 0.338
relative viability (LU99A; first compound 15.81 µM): 0.326
relative viability (LU99A; first compound 50 µM): 0.322
relative viability (LU99A; first compound 158.11 µM): 0.335
relative viability (LU99A; first compound 500 µM): 0.0775
relative viability (NCI-H1395; first compound 5 µM): 0.42
relative viability (NCI-H1395; first compound 15.81 µM): 0.403
relative viability (NCI-H1395; first compound 50 µM): 0.381
relative viability (NCI-H1395; first compound 158.11 µM): 0.4
relative viability (NCI-H1395; first compound 500 µM): 0.327
relative viability (HCC-15; first compound 5 µM): 1.21
relative viability (HCC-15; first compound 15.81 µM): 1.04
relative viability (HCC-15; first compound 50 µM): 1.14
relative viability (HCC-15; first compound 158.11 µM): 0.819
relative viability (HCC-15; first compound 500 µM): 0.476
relative viability (NCI-H647; first compound 5 µM): 0.502
relative viability (NCI-H647; first compound 15.81 µM): 0.32
relative viability (NCI-H647; first compound 50 µM): 0.406
relative viability (NCI-H647; first compound 158.11 µM): 0.282
relative viability (NCI-H647; first compound 500 µM): 0.343
relative viability (NCI-H1944; first compound 5 µM): 0.511
relative viability (NCI-H1944; first compound 15.81 µM): 0.487
relative viability (NCI-H1944; first compound 50 µM): 0.473
relative viability (NCI-H1944; first compound 158.11 µM): 0.307
relative viability (NCI-H1944; first compound 500 µM): 0.345
relative viability (CAL-12T; first compound 5 µM): 0.624
relative viability (CAL-12T; first compound 15.81 µM): 0.457
relative viability (CAL-12T; first compound 50 µM): 0.509
relative viability (CAL-12T; first compound 158.11 µM): 0.541
relative viability (CAL-12T; first compound 500 µM): 0.469
relative viability (NCI-H1666; first compound 5 µM): 0.911
relative viability (NCI-H1666; first compound 15.81 µM): 0.821
relative viability (NCI-H1666; first compound 50 µM): 0.761
relative viability (NCI-H1666; first compound 158.11 µM): 0.376
relative viability (NCI-H1666; first compound 500 µM): 0.553
relative viability (LC-2-ad; first compound 5 µM): 0.771
relative viability (LC-2-ad; first compound 15.81 µM): 0.813
relative viability (LC-2-ad; first compound 50 µM): 0.825
relative viability (LC-2-ad; first compound 158.11 µM): 0.283
relative viability (LC-2-ad; first compound 500 µM): 0.01
relative viability (PC-3 [JPC-3]; first compound 5 µM): 0.777
relative viability (PC-3 [JPC-3]; first compound 50 µM): 0.909
relative viability (PC-3 [JPC-3]; first compound 158.11 µM): 0.464
relative viability (PC-3 [JPC-3]; first compound 500 µM): 0.114
relative viability (NCI-H1734; first compound 5 µM): 0.505
relative viability (NCI-H1734; first compound 15.81 µM): 0.482
relative viability (NCI-H1734; first compound 50 µM): 0.413
relative viability (NCI-H1734; first compound 158.11 µM): 0.272
relative viability (NCI-H1734; first compound 500 µM): 0.0982
relative viability (NCI-H1975; first compound 5 µM): 0.734
relative viability (NCI-H1975; first compound 15.81 µM): 0.682
relative viability (NCI-H1975; first compound 50 µM): 0.581
relative viability (NCI-H1975; first compound 158.11 µM): 0.666
relative viability (NCI-H1975; first compound 500 µM): 0.677
relative viability (H3255; first compound 5 µM): 0.816
relative viability (H3255; first compound 15.81 µM): 0.847
relative viability (H3255; first compound 50 µM): 0.833
relative viability (H3255; first compound 158.11 µM): 0.733
relative viability (H3255; first compound 500 µM): 0.853
relative viability (PC-14; first compound 5 µM): 0.349
relative viability (PC-14; first compound 15.81 µM): 0.252
relative viability (PC-14; first compound 50 µM): 0.296
relative viability (PC-14; first compound 158.11 µM): 0.256
relative viability (PC-14; first compound 500 µM): 0.16
relative viability (NCI-H1993; first compound 5 µM): 0.743
relative viability (NCI-H1993; first compound 15.81 µM): 0.688
relative viability (NCI-H1993; first compound 50 µM): 0.65
relative viability (NCI-H1993; first compound 158.11 µM): 0.537
relative viability (NCI-H1993; first compound 500 µM): 0.286
relative viability (HCC-366; first compound 5 µM): 0.256
relative viability (HCC-366; first compound 15.81 µM): 0.203
relative viability (HCC-366; first compound 50 µM): 0.282
relative viability (HCC-366; first compound 158.11 µM): 0.138
relative viability (HCC-366; first compound 500 µM): 0.0061
relative viability (HARA; first compound 5 µM): 0.37
relative viability (HARA; first compound 15.81 µM): 0.0178
relative viability (HARA; first compound 50 µM): 0.302
relative viability (HARA; first compound 158.11 µM): 0.204
relative viability (HARA; first compound 500 µM): 0.041
relative viability (NCI-H838; first compound 5 µM): 0.977
relative viability (NCI-H838; first compound 15.81 µM): 0.935
relative viability (NCI-H838; first compound 50 µM): 0.893
relative viability (NCI-H838; first compound 158.11 µM): 0.844
relative viability (NCI-H838; first compound 500 µM): 0.912
relative viability (NCI-H3122; first compound 5 µM): 0.989
relative viability (NCI-H3122; first compound 15.81 µM): 0.977
relative viability (NCI-H3122; first compound 50 µM): 1.01
relative viability (NCI-H3122; first compound 158.11 µM): 0.973
relative viability (NCI-H3122; first compound 500 µM): 0.842
